According to PubChem BioAssay (NCI):
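In this assay, cells in 96-well plates receive the compound at five concentrations for 48 hours. Endpoints are linearly interpolated between the surrounding concentrations. GI50: concentration for 50% inhibition of growth. The concentration for full growth arrest is given as TGI.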

Key:
Experiment in all cases: inhibition of tumour cell growth, NCI panel, 48 h
MALME-3M melanoma = system: MALME-3M melanoma
CAKI-1 renal = system: CAKI-1 renal
K-562 leukemia = system: K-562 leukemia
NCI/ADR-RES ovarian = system: NCI/ADR-RES ovarian
UO-31 renal = system: UO-31 renal
OVCAR-3 ovarian = system: OVCAR-3 ovarian
HCT-116 colon = system: HCT-116 colon
COLO 205 colon = system: COLO 205 colon
NCI-H226 lung = system: NCI-H226 lung
SR leukemia = system: SR leukemia

SMILES | TGI (MALME-3M melanoma) | TGI (CAKI-1 renal) | TGI (K-562 leukemia) | TGI (NCI/ADR-RES ovarian) | TGI (UO-31 renal) | TGI (OVCAR-3 ovarian) | TGI (HCT-116 colon) | TGI (COLO 205 colon) | TGI (NCI-H226 lung) | GI50 (CAKI-1 renal) | GI50 (K-562 leukemia) | GI50 (NCI/ADR-RES ovarian) | GI50 (UO-31 renal) | GI50 (OVCAR-3 ovarian) | GI50 (SR leukemia) | TGI (SR leukemia) | GI50 (NCI-H226 lung) | GI50 (HCT-116 colon) | GI50 (COLO 205 colon) | GI50 (MALME-3M melanoma)
O=C(/C=N/O)c1c(-c2ccccc2)[nH]c(-c2ccccc2)c1-c1ccccc1 | 32.9 µM | 48.1 µM | > 100 µM | 25.5 µM | 36.3 µM | 58.7 µM | 72.6 µM | 36.6 µM | 83.4 µM |  |  |  |  |  |  |  |  |  |  | 
NS(=O)(=O)c1ccc(-n2nc(-c3ccc(Cl)cc3)cc2C2=CC(=O)C=CC2=O)cc1 |  | 48.5 µM | 74.1 µM | 63.5 µM | > 100 µM | 42.9 µM |  |  | 34.4 µM | 25.2 µM | 19.4 µM | 27.2 µM | 41.7 µM | 22.7 µM | 26.7 µM | > 100 µM | 13.8 µM |  |  | 
CC(C)(C)c1cc(C(O)(C(F)(F)F)C(F)(F)F)c2c(c1)C(C(F)(F)F)(C(F)(F)F)OC(c1ccccc1)(C(C)(C)C)N2 (stereo unspecified) | 27.6 µM | 16.4 µM | 11.6 µM |  | 15.2 µM | 12.4 µM | 13.2 µM | 16.1 µM | 9.32 µM |  |  |  |  |  |  | 6.69 µM |  |  |  | 
O=Cc1cc(O)c(O)c(O)c1-c1c(C=O)cc(O)c(O)c1O | > 100 µM | > 100 µM | > 100 µM |  | > 100 µM | > 100 µM | > 100 µM | > 100 µM | > 100 µM |  |  |  |  |  |  | > 100 µM |  |  |  | 
CC(=O)OCCOCNC(=S)N/N=C(\C)c1ccco1 | > 100 µM |  | > 100 µM |  | > 100 µM | > 100 µM | > 100 µM | > 100 µM | > 100 µM |  |  |  |  |  |  |  |  |  |  | 
COc1ccc(/C=C(/C(=O)N2CCNCC2)c2cc(OC)c(OC)c(OC)c2)cc1O |  | > 100 µM | > 100 µM | > 100 µM | > 100 µM | 7.1 µM | > 100 µM | 14 µM | > 100 µM | > 100 µM | 1.6 µM | > 100 µM | 55.5 µM | 2.45 µM | 0.642 µM | > 100 µM | 5.4 µM | 3.45 µM | 3.24 µM | 
CCN(CCCl)CCNc1c2ccccc2nc2ccc(OC)cc12 | 2.31 µM | 4.23 µM | 2.51 µM | 12.8 µM | 3.98 µM | 4.71 µM | 2.1 µM | 1.82 µM | 2.42 µM |  |  |  |  |  |  |  |  |  |  | 
O=C1c2cccnc2-c2nc(-c3ccc([N+](=O)[O-])cc3)cc3c2c1nc1ccccc13 | 6.32 µM | > 100 µM | > 100 µM | 10.3 µM | > 66.1 µM | 1.74 µM | > 26.1 µM | 11.9 µM | 33.4 µM | 13.8 µM | 20.7 µM | 2.44 µM | 5.1 µM | 0.261 µM |  |  | 9.63 µM | 2.56 µM | 5.54 µM | 2.15 µM
O=C(O)/C(Cl)=C(/Cl)C(=O)Nc1cccc(Cl)c1 | 31.7 µM | 16.3 µM | 40.1 µM |  | 37.4 µM | 31.4 µM | 31.8 µM | 23.3 µM | 67.2 µM |  |  |  |  |  |  | 26.4 µM |  |  |  | 
O=S1(=O)CSc2ccc3ccccc3c2-c2c1ccc1ccccc21 | > 100 µM | > 100 µM | > 100 µM |  | > 100 µM | > 100 µM | > 100 µM | > 100 µM |  |  |  |  |  |  |  | > 100 µM |  |  |  | 
COc1cc(/C=C/C(=O)c2ccc(Nc3nc(Nc4ccc(F)cc4)nc(Nc4ccc(F)cc4)n3)cc2)cc(OC)c1OC | 82.4 µM | > 100 µM | > 100 µM | > 100 µM | > 100 µM | > 100 µM | > 100 µM | > 100 µM | 29.3 µM | > 100 µM | 3 µM | 4.69 µM | 3.75 µM | > 100 µM |  |  | 3.8 µM | 2.56 µM | 3.5 µM | 17.1 µM
O=C(/C=C/c1ccccc1F)C(c1ccccc1)c1ccccc1 | 23.7 µM | 17.8 µM | 9.74 µM |  | 25.2 µM | 15.2 µM | 6.4 µM |  | 25.3 µM |  |  |  |  |  |  | 41.9 µM |  |  |  | 
COc1ccccc1NC(=O)C1=C(C)NC(C)=C(C(=O)Nc2ccccc2OC)C1c1ccc(C(C)C)cc1 | > 100 µM | > 100 µM | > 1 µM |  | > 100 µM | > 100 µM | > 100 µM | > 100 µM | > 100 µM |  |  |  |  |  |  | > 100 µM |  |  |  | 
C[C@H](NC(=O)OC1C2C=CC(O)C1CC2)c1ccccc1 (stereo partly specified) | > 100 µM | > 100 µM | > 100 µM |  | > 100 µM | > 100 µM | > 100 µM | > 100 µM | > 100 µM |  |  |  |  |  |  | 46.2 µM |  |  |  | 
Cc1ccc(S(=O)(=O)N2CCCCC2CCO)cc1 (stereo unspecified) | > 100 µM | > 100 µM | > 100 µM |  | > 100 µM | > 100 µM | > 100 µM | > 100 µM | > 100 µM |  |  |  |  |  |  | > 100 µM |  |  |  | 
Cn1cc(C(=O)C2CCCCC2)ccc1=O | > 100 µM | > 100 µM | > 100 µM |  | > 100 µM | > 100 µM | > 100 µM | > 100 µM | > 100 µM |  |  |  |  |  |  | > 100 µM |  |  |  | 
Cc1cc(Cl)ccc1N1C(=O)C(=O)C(c2nc3ccccc3s2)C(=O)C1=O | > 100 µM | > 100 µM | > 100 µM |  | > 100 µM | > 100 µM | > 100 µM | > 100 µM | > 100 µM |  |  |  |  |  |  | > 100 µM |  |  |  | 
CNCCNc1nc2ccccc2c2c(=O)c3cccc(OC)c3sc12 | 3.59 µM | 2.71 µM | 2.65 µM | 2.84 µM | 2.08 µM | 3.02 µM | 1.86 µM | 2.68 µM | 3.49 µM | 1.32 µM | 0.596 µM | 1.23 µM | 0.38 µM | 1.52 µM |  |  | 1.61 µM | 0.547 µM | 1.11 µM | 1.83 µM
CC(=O)O[C@H]1CC[C@@]2(C)C(=CC[C@@H]3C2CC[C@]2(C)Nc4oncc4CC32)C1 (stereo partly specified) | 82.2 µM | > 100 µM | 21.1 µM |  | 70.7 µM | 30.7 µM | 30.4 µM |  | 49.5 µM |  |  |  |  |  |  |  |  |  |  | 
